{"source": "patent US9557319B2", "about": "“Cell-based arrays, methods of making, and methods of using” (University of Florida Research Foundation, Inc., priority 2010, dated 2017)", "key": {"[1]": {"assay": "Loading efficiency of small molecules in microarrayed EVA films", "assay_type": "physicochemical", "protocol": "To embed molecules into the polymer matrix, they were first dissolved in an appropriate solvent, depending on their respective hydrophobicity. A stock solution of azide (99%, Acros), a hydrophilic molecule, was dissolved in dH2O whereas Nutlin-3a (EMD Chemicals, Gibbstown, N.J.) and camptothecin (Sigma), both hydrophobic molecules, were dissolved in DMSO. Dissolved drugs were then added to 5% EVA at a 1:10 ratio of solvent:EVA. Prior to printing, polymer mixtures were vortexed for 30 s and then homogenized for 1 min before being loaded onto the source plate of the robotic mini-arrayer.\nTo determine the loading efficiency of factors, polymer formulations were made as described above. Films derived from 100 μl EVA loaded with factors were then made on glass coverslips and allowed to dry overnight under vacuum. Films were removed from the glass substrates and weighed. Films were washed briefly with PBS before being placed in 1 ml toluene to dissolve the polymer. Samples were then analyzed using a Nanodrop-ND-1000 spectrophotometer. Standard curves were generated for each factor, and loading efficiency was calculated as the percent of drug embedded in the polymer compared to the theoretical drug concentration."}, "HCT116 cells": {"test_system": "HCT116 cells", "assay": "HCT116 cell number (Hoechst nuclear stain) on drug-loaded microarray", "assay_type": "cell-based, human", "from_the_text": "The following figures (FIGS. 5.1 to 5.4) are micrographs taken from drug-eluting cellular microarrays, manufactured as described herein. The images are taken from individual cellular islands from the same array under various drug-loading conditions over a period of three days. HCT116 cells are nuclear stained with Hoechst for easy visibility. […] The water phase for this experiment was loaded with azide at various concentrations in addition to a control with no drug loaded. Azide is a useful probe reagent, mutagen, and preservative. Azide inhibits cytochrome oxidase by binding irreversibly to the heme cofactor in a process similar to the action of carbon monoxide. As such, it is expected to induce necrosis in cells at physiologically relevant doses.\nTo establish microarray fidelity, microarrays were manufactured as described above. HCT116 cells were then seeded over microarrays and incubated for 24 or 72 h. Microarrays were fixed in 4% paraformaldehyde and stained with Hoechst 34580 dye.\nCamptothecin-loaded microarrays were stained with Annexin V (BD Pharminigen), fixed in 4% paraformaldehyde, and placed in PBS with Hoechst dye 34580 (Invitrogen, USA) for 30 min. Azide-loaded microarrays were fixed with 4% paraformaldehyde and incubated with PBS containing Hoechst 34580 dye. Finally, nutlin-3a-loaded microarrays were fixed with 4% paraformaldehyde, stained with BrdU (BD Bioscience, San Jose, Calif.), and incubated in PBS containing Hoechst 34580 dye. All arrays were mounted with Fluoro-Gel (Electron Microscope Sciences, Hatfield, Pa.) and imaged using an Axiovert 200M microscope (Carl Zeiss, Oberkochen, Germany). Analysis was performed with Axiovision (Carl Zeiss, Oberkochen, Germany) by quantifying, in each drug-eluting island, the area of fluorescence and reported as relative fluorescence intensity (RFI)."}}, "data": [{"smiles": "[N-]=[N+]=[N-]", "note": "[Azide]", "values": [{"measurement": "Loading efficiency (%)", "setting": "[1]", "value": "73 +/− 8%"}, {"measurement": "response of HCT116 cell density on azide-loaded ELVAX islands", "setting": "HCT116 cells; 37.5 and 75 mM azide, 5-68 h", "value": "dose-dependent response"}, {"measurement": "cell counts of HCT116 on drug-loaded film after attachment", "setting": "HCT116 cells; 1 h after seeding, across loading concentrations, ANOVA p=0.490", "value": "No statistical difference"}, {"measurement": "HCT116 cell numbers vs drug loading concentration", "setting": "HCT116 cells; after 24 h", "value": "decreased with increasing loading concentrations"}]}]}
